Assay results reported in paper PMC12406253, “Exploration of the Neuromodulatory Properties of Fyn and GSK-3β Kinases Exploiting 7‑Azaindole-Based Inhibitors” (Journal of Medicinal Chemistry, 2025).

Columns and labels:
Format in all cases: biochemical
FYNα = FYNα (Homo sapiens, UniProt P06241); assay: FYNα kinase assay, LANCE Ultra TR-FRET; conditions: mean ± SD of at least three independent determinations; ATP near Km; read-out: Fyn IC50
AMPKα1(h) = molecular target: T1, AMPKα1(h) (Homo sapiens, UniProt Q13131); assay: Eurofins KinaseProfiler radiometric kinase assay; conditions: read-out: AMPKα1(h) % Residual activity
T1 construct: purchased Eurofins KinaseProfiler (Eurofins Cerep)

ASK1(h) = molecular target: T2, ASK1(h) (Homo sapiens, UniProt Q99683); assay: Eurofins KinaseProfiler radiometric kinase assay; conditions: read-out: ASK1(h) % Residual activity
T2 construct: purchased Eurofins KinaseProfiler (Eurofins Cerep)

Aurora-A(h) = molecular target: T3, Aurora-A(h) (Homo sapiens, UniProt O14965); assay: Eurofins KinaseProfiler radiometric kinase assay; conditions: read-out: Aurora-A(h) % Residual activity
T3 construct: purchased Eurofins KinaseProfiler (Eurofins Cerep)
T3 sequence (O14965 whole entry): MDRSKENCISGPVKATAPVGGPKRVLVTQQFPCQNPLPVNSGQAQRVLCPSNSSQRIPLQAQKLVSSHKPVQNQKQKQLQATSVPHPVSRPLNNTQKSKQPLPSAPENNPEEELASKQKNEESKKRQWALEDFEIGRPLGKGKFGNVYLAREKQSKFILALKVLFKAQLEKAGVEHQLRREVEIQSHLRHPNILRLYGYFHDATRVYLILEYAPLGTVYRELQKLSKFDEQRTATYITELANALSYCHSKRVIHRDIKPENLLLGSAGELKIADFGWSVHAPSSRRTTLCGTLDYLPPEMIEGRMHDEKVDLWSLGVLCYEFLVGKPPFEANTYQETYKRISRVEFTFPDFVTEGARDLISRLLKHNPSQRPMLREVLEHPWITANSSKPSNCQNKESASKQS

CDK2/cyclinA(h) = molecular target: T4, CDK2/cyclinA(h) (Homo sapiens, UniProt P24941); assay: Eurofins KinaseProfiler radiometric kinase assay; conditions: read-out: CDK2/cyclinA(h) % Residual activity
T4 construct: purchased Eurofins KinaseProfiler (Eurofins Cerep)

CDK9/cyclin T1(h) = molecular target: T5, CDK9/cyclin T1(h) (Homo sapiens, UniProt P50750); assay: Eurofins KinaseProfiler radiometric kinase assay; conditions: for remaining activity at 10 µM: read-out: CDK9/cyclin T1(h) % Residual activity
T5 construct: purchased Eurofins KinaseProfiler (Eurofins Cerep)
T5 sequence (P50750 whole entry): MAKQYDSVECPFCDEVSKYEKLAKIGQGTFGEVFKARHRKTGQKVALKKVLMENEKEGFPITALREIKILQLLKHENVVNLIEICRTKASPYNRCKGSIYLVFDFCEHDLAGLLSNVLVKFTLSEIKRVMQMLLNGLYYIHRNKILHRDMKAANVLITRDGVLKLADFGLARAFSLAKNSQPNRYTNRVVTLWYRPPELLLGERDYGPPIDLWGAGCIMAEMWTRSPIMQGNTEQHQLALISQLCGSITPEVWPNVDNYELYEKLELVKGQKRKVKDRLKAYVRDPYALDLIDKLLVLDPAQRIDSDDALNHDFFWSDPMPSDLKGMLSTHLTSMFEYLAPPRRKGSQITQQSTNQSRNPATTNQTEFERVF
T5 sequence (O60563 whole entry partner): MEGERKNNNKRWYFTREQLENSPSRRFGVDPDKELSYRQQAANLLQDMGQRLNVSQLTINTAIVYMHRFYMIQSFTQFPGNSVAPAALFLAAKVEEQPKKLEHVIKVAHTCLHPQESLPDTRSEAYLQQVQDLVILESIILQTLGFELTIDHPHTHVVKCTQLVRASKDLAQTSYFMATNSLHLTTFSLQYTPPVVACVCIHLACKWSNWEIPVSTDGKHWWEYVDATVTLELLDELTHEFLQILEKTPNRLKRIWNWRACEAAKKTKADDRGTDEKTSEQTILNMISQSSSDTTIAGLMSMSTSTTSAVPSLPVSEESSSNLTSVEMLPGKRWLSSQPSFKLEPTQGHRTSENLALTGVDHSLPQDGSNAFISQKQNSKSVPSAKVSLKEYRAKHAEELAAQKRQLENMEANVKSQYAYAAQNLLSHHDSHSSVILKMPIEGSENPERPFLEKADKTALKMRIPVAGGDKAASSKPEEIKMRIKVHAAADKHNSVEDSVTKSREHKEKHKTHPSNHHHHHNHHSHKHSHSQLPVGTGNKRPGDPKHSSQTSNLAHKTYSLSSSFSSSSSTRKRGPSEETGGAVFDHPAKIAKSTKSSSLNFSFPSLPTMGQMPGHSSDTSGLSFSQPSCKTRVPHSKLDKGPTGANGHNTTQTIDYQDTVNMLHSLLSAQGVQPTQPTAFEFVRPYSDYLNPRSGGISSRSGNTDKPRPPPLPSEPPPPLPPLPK

CHK1(h) = molecular target: T6, CHK1(h) (Homo sapiens, UniProt O14757); assay: Eurofins KinaseProfiler radiometric kinase assay; conditions: read-out: CHK1(h) % Residual activity
T6 construct: purchased Eurofins KinaseProfiler (Eurofins Cerep)

eEF-2K(h) = molecular target: T7, eEF-2K(h) (Homo sapiens, UniProt O00418); assay: Eurofins KinaseProfiler radiometric kinase assay; conditions: read-out: eEF-2K(h) % Residual activity
T7 construct: purchased Eurofins KinaseProfiler (Eurofins Cerep)

EphA5(h) = molecular target: T8, EphA5(h) (Homo sapiens, UniProt P54756); assay: Eurofins KinaseProfiler radiometric kinase assay; conditions: read-out: EphA5(h) % Residual activity
T8 construct: purchased Eurofins KinaseProfiler (Eurofins Cerep)

JAK2(h) = molecular target: T9, JAK2(h) (Homo sapiens, UniProt O60674); assay: Eurofins KinaseProfiler radiometric kinase assay; conditions: read-out: JAK2(h) % Residual activity
T9 construct: purchased Eurofins KinaseProfiler (Eurofins Cerep)

KDR(h) = molecular target: T10, KDR(h) (Homo sapiens, UniProt P35968); assay: Eurofins KinaseProfiler radiometric kinase assay; conditions: read-out: KDR(h) % Residual activity
T10 construct: purchased Eurofins KinaseProfiler (Eurofins Cerep)

MEK1(h) = molecular target: T11, MEK1(h) (Homo sapiens, UniProt Q02750); assay: Eurofins KinaseProfiler radiometric kinase assay; conditions: read-out: MEK1(h) % Residual activity
T11 construct: purchased Eurofins KinaseProfiler (Eurofins Cerep)

MLK1(h) = molecular target: T12, MLK1(h) (Homo sapiens, UniProt P80192); assay: Eurofins KinaseProfiler radiometric kinase assay; conditions: for remaining activity at 10 µM: read-out: MLK1(h) % Residual activity
T12 construct: purchased Eurofins KinaseProfiler (Eurofins Cerep)
T12 sequence (P80192 whole entry): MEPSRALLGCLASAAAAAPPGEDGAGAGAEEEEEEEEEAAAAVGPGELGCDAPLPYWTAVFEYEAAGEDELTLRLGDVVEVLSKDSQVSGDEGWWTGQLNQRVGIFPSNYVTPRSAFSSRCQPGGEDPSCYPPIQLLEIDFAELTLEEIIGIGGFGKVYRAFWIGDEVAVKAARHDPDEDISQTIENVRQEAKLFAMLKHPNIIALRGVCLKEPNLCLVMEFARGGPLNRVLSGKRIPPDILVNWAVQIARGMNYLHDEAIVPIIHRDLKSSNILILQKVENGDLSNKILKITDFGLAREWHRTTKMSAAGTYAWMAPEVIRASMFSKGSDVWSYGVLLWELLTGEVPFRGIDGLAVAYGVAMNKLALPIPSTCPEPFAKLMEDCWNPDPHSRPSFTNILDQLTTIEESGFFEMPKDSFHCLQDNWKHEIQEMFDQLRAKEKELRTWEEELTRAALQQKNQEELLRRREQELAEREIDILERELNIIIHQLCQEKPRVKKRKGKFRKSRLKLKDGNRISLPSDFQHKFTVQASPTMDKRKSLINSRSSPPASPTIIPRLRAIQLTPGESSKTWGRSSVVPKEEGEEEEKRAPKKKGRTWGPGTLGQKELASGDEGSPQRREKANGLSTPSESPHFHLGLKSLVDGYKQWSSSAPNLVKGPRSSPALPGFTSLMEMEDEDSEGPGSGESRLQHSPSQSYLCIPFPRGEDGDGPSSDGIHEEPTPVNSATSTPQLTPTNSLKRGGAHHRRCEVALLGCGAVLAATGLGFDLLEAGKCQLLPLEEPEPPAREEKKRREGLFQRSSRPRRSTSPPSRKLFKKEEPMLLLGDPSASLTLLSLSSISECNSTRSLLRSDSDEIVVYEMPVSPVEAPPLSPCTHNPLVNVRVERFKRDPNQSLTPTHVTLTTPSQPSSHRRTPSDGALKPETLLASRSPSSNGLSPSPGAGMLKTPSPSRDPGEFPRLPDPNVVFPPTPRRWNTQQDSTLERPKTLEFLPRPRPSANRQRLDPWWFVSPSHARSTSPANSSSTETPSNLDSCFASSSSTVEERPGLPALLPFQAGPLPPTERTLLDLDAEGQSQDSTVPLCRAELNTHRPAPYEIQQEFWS

MSK2(h) = molecular target: T13, MSK2(h) (Homo sapiens, UniProt O75676); assay: Eurofins KinaseProfiler radiometric kinase assay; conditions: for remaining activity at 10 µM: read-out: MSK2(h) % Residual activity
T13 construct: purchased Eurofins KinaseProfiler (Eurofins Cerep)
T13 sequence (O75676 whole entry): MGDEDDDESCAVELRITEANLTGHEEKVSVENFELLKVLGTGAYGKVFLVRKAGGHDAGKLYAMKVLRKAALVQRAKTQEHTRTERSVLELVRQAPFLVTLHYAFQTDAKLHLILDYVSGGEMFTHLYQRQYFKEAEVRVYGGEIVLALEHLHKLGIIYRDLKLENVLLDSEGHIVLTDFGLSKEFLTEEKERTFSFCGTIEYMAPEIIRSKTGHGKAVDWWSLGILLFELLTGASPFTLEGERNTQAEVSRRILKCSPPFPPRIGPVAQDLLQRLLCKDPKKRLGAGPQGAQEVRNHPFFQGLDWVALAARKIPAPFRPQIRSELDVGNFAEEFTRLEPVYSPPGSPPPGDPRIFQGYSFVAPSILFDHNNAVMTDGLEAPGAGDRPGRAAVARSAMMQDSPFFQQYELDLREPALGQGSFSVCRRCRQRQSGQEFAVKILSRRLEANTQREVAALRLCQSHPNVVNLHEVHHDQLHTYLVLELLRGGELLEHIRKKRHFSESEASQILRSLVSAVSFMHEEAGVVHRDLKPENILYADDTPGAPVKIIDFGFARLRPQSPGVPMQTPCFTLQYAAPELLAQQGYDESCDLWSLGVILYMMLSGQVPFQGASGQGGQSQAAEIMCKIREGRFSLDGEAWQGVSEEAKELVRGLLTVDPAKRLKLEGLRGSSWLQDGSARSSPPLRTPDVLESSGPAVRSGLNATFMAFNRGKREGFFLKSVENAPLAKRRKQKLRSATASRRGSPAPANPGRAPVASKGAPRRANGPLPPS

mTOR(h) = molecular target: T14, mTOR(h) (Homo sapiens, UniProt P42345); assay: Eurofins KinaseProfiler radiometric kinase assay; conditions: read-out: mTOR(h) % Residual activity
T14 construct: purchased Eurofins KinaseProfiler (Eurofins Cerep)

PKG1α(h) = molecular target: T15, PKG1α(h) (Homo sapiens, UniProt Q13976); assay: Eurofins KinaseProfiler radiometric kinase assay; conditions: read-out: PKG1α(h) % Residual activity
T15 construct: purchased Eurofins KinaseProfiler (Eurofins Cerep)

PRAK(h) = molecular target: T16, PRAK(h) (Homo sapiens, UniProt Q8IW41); assay: Eurofins KinaseProfiler radiometric kinase assay; conditions: read-out: PRAK(h) % Residual activity
T16 construct: purchased Eurofins KinaseProfiler (Eurofins Cerep)

ROCK-I(h) = molecular target: T17, ROCK-I(h) (Homo sapiens, UniProt Q13464); assay: Eurofins KinaseProfiler radiometric kinase assay; conditions: read-out: ROCK-I(h) % Residual activity
T17 construct: purchased Eurofins KinaseProfiler (Eurofins Cerep)
T17 sequence (Q13464 whole entry): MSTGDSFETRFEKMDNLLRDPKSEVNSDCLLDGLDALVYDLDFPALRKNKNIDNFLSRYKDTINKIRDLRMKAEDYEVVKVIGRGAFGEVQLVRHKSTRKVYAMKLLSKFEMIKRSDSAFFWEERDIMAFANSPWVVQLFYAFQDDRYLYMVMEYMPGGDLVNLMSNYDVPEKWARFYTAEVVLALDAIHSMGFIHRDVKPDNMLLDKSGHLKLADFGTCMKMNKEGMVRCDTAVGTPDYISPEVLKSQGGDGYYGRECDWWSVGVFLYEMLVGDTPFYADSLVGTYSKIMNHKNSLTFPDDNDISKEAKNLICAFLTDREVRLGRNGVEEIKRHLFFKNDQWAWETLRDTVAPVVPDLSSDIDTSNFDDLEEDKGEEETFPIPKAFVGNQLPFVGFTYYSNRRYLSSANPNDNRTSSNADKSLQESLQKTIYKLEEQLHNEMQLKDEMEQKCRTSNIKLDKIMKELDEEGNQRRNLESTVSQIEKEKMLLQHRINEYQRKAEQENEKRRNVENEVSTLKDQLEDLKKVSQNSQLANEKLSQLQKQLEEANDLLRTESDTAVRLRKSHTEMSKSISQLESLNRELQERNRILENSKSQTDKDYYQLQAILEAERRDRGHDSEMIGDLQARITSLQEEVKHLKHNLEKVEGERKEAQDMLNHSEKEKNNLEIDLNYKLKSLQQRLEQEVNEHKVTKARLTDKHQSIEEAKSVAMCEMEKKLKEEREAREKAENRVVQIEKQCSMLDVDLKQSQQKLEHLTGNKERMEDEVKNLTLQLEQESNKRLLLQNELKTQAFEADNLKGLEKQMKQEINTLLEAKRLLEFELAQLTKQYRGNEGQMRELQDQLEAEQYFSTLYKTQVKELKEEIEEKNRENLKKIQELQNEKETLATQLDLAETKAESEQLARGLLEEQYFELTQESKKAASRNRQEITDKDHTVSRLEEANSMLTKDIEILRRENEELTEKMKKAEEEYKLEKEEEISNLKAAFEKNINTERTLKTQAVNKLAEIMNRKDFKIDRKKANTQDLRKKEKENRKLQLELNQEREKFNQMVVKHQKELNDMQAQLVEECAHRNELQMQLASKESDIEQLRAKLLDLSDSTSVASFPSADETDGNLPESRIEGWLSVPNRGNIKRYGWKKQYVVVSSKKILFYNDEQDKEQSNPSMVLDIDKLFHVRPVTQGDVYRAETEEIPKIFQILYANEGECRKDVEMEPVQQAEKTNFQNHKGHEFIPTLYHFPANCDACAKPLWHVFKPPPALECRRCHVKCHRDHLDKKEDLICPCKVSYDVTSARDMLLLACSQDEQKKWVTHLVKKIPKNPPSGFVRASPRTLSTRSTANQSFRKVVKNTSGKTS

Rse(h) = molecular target: T18, Rse(h) (Homo sapiens, UniProt Q06418); assay: Eurofins KinaseProfiler radiometric kinase assay; conditions: read-out: Rse(h) % Residual activity
T18 construct: purchased Eurofins (Eurofins Cerep) KinaseProfiler

SRPK1(h) = molecular target: T19, SRPK1(h) (Homo sapiens, UniProt Q96SB4); assay: Eurofins KinaseProfiler radiometric kinase assay; conditions: read-out: SRPK1(h) % Residual activity
T19 construct: purchased Eurofins (Eurofins Cerep) KinaseProfiler

TAK1(h) = molecular target: T20, TAK1(h) (Homo sapiens, UniProt O43318); assay: Eurofins KinaseProfiler radiometric kinase assay; conditions: read-out: TAK1(h) % Residual activity
T20 construct: purchased Eurofins (Eurofins Cerep) KinaseProfiler
T20 sequence (O43318 1-303 limits assumed): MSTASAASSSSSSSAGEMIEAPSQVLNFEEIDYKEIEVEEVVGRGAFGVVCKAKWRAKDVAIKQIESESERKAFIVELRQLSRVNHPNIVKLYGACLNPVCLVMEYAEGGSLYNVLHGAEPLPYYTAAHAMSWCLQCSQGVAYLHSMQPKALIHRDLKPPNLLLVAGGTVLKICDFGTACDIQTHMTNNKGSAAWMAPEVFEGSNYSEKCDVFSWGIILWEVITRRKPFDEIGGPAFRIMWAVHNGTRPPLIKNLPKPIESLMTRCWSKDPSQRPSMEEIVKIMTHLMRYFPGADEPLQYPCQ

[1] = molecular target: T21, PI3 Kinase (p110β/p85α)(h) (Homo sapiens, UniProt P42338); assay: Eurofins KinaseProfiler radiometric kinase assay; conditions: read-out: PI3 Kinase (p110β/p85α)(h) % Residual activity
T21 construct: purchased Eurofins (Eurofins Cerep) KinaseProfiler

[2] = molecular target: T22, PI3 Kinase (p110δ/p85α)(h) (Homo sapiens, UniProt O00329); assay: Eurofins KinaseProfiler radiometric kinase assay; conditions: read-out: PI3 Kinase (p110δ/p85α)(h) % Residual activity
T22 construct: purchased Eurofins (Eurofins Cerep) KinaseProfiler

[3] = molecular target: T23, PI3 Kinase (p110α/p85α)(h) (Homo sapiens, UniProt P42336); assay: Eurofins KinaseProfiler radiometric kinase assay; conditions: read-out: PI3 Kinase (p110α/p85α)(h) % Residual activity
T23 construct: purchased Eurofins (Eurofins Cerep) KinaseProfiler

`Br.Cc1sc(NCc2ccccc2)nc1-c1c[nH]c2ncc(Br)cc12` [Compound 41, N-Benzyl-4-(5-bromo-1H-pyrrolo[2,3-b]pyridin-3-yl)-5-methylthiazol-2-amine Hydrobromide] showed an IC50 (FYNα) of 0.05 ± 0.01 µM, a remaining activity at 10 µM (AMPKα1(h)) of 54% and a remaining activity at 10 µM (ASK1(h)) of 72%. It also gave a remaining activity at 10 µM (Aurora-A(h)) of 11%, a remaining activity at 10 µM (CDK2/cyclinA(h)) of 27% and a remaining activity at 10 µM (CDK9/cyclin T1(h)) of 50%. It also gave a remaining activity at 10 µM (CHK1(h)) of 111%, a remaining activity at 10 µM (eEF-2K(h)) of 121% and a remaining activity at 10 µM (EphA5(h)) of 93%. The remaining activity at 10 µM (JAK2(h)) was 26%, the remaining activity at 10 µM (KDR(h)) was 16% and the remaining activity at 10 µM (MEK1(h)) was 61%. It also gave an inhibition at 10 µM (MLK1(h)) of over 90%, a remaining activity at 10 µM (MLK1(h)) of 8% and a remaining activity at 10 µM (MSK2(h)) of 59%. It also gave a remaining activity at 10 µM (mTOR(h)) of 86%, a remaining activity at 10 µM (PKG1α(h)) of 80% and a remaining activity at 10 µM (PRAK(h)) of 64%. For the same molecule, the remaining activity at 10 µM (ROCK-I(h)) was 93%, the remaining activity at 10 µM (Rse(h)) was 34% and the remaining activity at 10 µM (SRPK1(h)) was 85%. The remaining activity at 10 µM (TAK1(h)) was 49%, the remaining activity at 10 µM [1] was 89% and the remaining activity at 10 µM [2] was 66%. It also gave a remaining activity at 10 µM [3] of 97%.

In the case of `Br.Cc1sc(NCc2ccnc(Cl)c2)nc1-c1c[nH]c2ncccc12` [Compound 43, N-((2-Chloropyridin-4-yl)methyl)-5-methyl-4-(1H-pyrrolo[2,3-b]pyridin-3-yl)thiazol-2-amine Hydrobromide], the IC50 (FYNα) is reported as 0.044 ± 0.003 µM, the remaining activity at 10 µM (AMPKα1(h)) is reported as 60% and the remaining activity at 10 µM (ASK1(h)) is reported as 97%. The remaining activity at 10 µM (Aurora-A(h)) was 27%, the remaining activity at 10 µM (CDK2/cyclinA(h)) was 16% and the inhibition at 10 µM (CDK9/cyclin T1(h)) was over 90%. It also gave a remaining activity at 10 µM (CDK9/cyclin T1(h)) of 5%, a remaining activity at 10 µM (CHK1(h)) of 112% and a remaining activity at 10 µM (eEF-2K(h)) of 108%. It also gave a remaining activity at 10 µM (EphA5(h)) of 103%, a remaining activity at 10 µM (JAK2(h)) of 46% and a remaining activity at 10 µM (KDR(h)) of 15%. For the same molecule, the remaining activity at 10 µM (MEK1(h)) was 35%, the remaining activity at 10 µM (MLK1(h)) was 12% and the inhibition at 10 µM (MSK2(h)) was over 90%. It also gave a remaining activity at 10 µM (MSK2(h)) of 1%, a remaining activity at 10 µM (mTOR(h)) of 97% and a remaining activity at 10 µM (PKG1α(h)) of 40%. The remaining activity at 10 µM (PRAK(h)) was 97%, the remaining activity at 10 µM (ROCK-I(h)) was 76% and the remaining activity at 10 µM (Rse(h)) was 98%. It also gave a remaining activity at 10 µM (SRPK1(h)) of 96%, a remaining activity at 10 µM (TAK1(h)) of 30% and a remaining activity at 10 µM [1] of 94%. It also gave a remaining activity at 10 µM [2] of 97% and a remaining activity at 10 µM [3] of 96%.
